The assay deals with human ADRB2 (Homo sapiens, UniProt P07550). Kind of assay: Calcium mobilization assay. It counts as cell-based. The following applies: in words; for ADRB2 antagonist activity: Figure 4B.
Sequence of human ADRB2 (P07550 whole entry): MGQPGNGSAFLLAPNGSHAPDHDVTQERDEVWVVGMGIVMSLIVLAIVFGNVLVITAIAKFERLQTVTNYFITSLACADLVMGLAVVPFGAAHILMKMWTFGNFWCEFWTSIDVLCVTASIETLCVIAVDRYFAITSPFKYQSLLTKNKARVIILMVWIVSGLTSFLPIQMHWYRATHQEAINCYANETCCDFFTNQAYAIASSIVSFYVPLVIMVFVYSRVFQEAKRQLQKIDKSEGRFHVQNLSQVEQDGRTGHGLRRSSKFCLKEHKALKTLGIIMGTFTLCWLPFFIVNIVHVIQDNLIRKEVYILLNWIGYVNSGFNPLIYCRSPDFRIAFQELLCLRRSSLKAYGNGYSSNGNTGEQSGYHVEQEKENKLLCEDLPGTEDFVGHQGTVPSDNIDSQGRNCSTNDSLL

Take `Cc1ccc(-n2c(C)ccc2C)c2c1CC(C)(C)O2` [Compound 5, 2,5-Dimethyl-1-(2,2,4-trimethyl-2,3-dihydro-1-benzofuran-7-yl)-1H-pyrrole]: under “Figure 4A”, the ADRB2 agonist activity result is “weak ADRB2 agonist activity”.

In the case of `COCCCNCC(O)COc1cccc2[nH]c(C)cc12` (stereo not drawn) [Compound 33, 1-[(3-Methoxypropyl)amino]-3-[(2-methyl-1H-indol-4-yl)oxy]-2-propanol], the ADRB2 antagonist activity result is “strong ADRB2 antagonist activity”.

In the case of `Cc1cc2c(OCC(O)CNC(C)(C)C)cccc2[nH]1` (stereo not drawn) [Compound 8, 1-(tert-butylamino)-3-[(2-methyl-1H-indol-4-yl)oxy]-2-propanol, reference compound], the ADRB2 antagonist activity result was “strong ADRB2 antagonist activity”.

The values above are taken from publication PMC3094066 (Molecular Systems Biology, 2011).
